# Data: patent publication US10093623B2, “Cyclic amides as MetAP-2 inhibitors” (MERCK PATENT GmbH, priority 2012, dated 2018)
# Target: MetAP-2 (Homo sapiens, UniProt P50579)
# Experiment: MetAP-2 activity measurement (coupled enzymatic reactions, Met-Arg-Ser substrate, dianisidine detection at 450 nm)
# Type: biochemical
# Details: Inhibition of MetAP-2; read-out: IC50 enzyme
# Outline: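 Rate read from the linear part of the 450 nm absorbance trace. Dianisidine oxidation by peroxidase reports H2O2 made when amino acid oxidase acts on methionine cleaved from MAS tripeptide, one mol dye per mol Met; extinction coefficient gives molar activity.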
# MetAP-2, sequence (P50579 whole entry, species assumed): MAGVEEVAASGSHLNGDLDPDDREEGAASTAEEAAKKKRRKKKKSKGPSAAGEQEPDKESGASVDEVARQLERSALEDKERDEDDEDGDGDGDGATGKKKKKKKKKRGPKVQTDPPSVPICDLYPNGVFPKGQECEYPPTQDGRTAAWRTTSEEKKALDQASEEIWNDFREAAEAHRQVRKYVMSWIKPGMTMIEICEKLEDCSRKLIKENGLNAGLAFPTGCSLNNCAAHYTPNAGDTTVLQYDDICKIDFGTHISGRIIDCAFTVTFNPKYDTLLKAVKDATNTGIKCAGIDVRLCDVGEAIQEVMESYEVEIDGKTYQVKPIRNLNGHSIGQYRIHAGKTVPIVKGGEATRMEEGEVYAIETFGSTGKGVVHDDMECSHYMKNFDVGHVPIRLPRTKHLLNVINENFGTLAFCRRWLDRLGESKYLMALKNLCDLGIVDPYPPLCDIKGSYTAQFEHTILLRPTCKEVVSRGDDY
row,IC50 [nM],SMILES
1,1000 to 10000,"NC(=O)CCN1CCC(O)(C(=O)NCc2cc(F)cc(Cl)c2)C1=O (stereo not shown) [A300, N-(3-Chloro-5-fluorobenzyl)-1-(2-carbamoylethyl)-3-hydroxy-2-oxopyrrolidine-3-carboxamide]"
2,10 to 1000,"O=C1CCc2cc(N3CC[C@](O)(C(=O)NCc4cc(Cl)ccc4F)C3=O)ccc2N1 [B4, N-(5-Chloro-2-fluorobenzyl)-(S)-3-hydroxy-2-oxo-1-(2-oxo-1,2,3,4-tetrahydroquinolin-6-yl)-pyrrolidine-3-carboxamide]"
3,10 to 1000,"O=C1CCc2cc(N3CC[C@](O)(C(=O)NCCc4ccccc4F)C3=O)ccc2N1 [B5, N-[2-(2-Fluorophenyl)ethyl]-(S)-3-hydroxy-2-oxo-1-(2-oxo-1,2,3,4-tetrahydroquinolin-6-yl)-pyrrolidine-3-carboxamide]"
4,10 to 1000,"O=C1CCc2cc(N3CC[C@](O)(C(=O)NCCc4cccc(F)c4)C3=O)ccc2N1 [B6, N-[2-(3-Fluorophenyl)ethyl]-(S)-3-hydroxy-2-oxo-1-(2-oxo-1,2,3,4-tetrahydroquinolin-6-yl)-pyrrolidine-3-carboxamide]"
5,10 to 1000,"CC(=O)Nc1ccc(N2CC[C@](O)(C(=O)NCc3cccc(F)c3Cl)C2=O)cn1 [B9, N-(2-Chloro-3-fluorobenzyl)-(S)-1-(6-acetylaminopyridin-3-yl)-3-hydroxy-2-oxopyrrolidine-3-carboxamide]"
6,10 to 1000,O=C(NCCc1cccc(F)c1)[C@@]1(O)CCN(c2ccc3[nH]ccc3c2)C1=O [B10]
7,1000 to 10000,"COc1cc(Cl)c(C)cc1N1CCC(O)(C(=O)NCc2cc(F)cc(Cl)c2)C1=O (stereo not shown) [B12, N-(3-Chloro-5-fluorobenzyl)-1-(4-chloro-2-methoxy-5-methyl-phenyl)-3-hydroxy-2-oxo-pyrrolidine-3-carboxamide]"
8,1000 to 10000,"COc1ccc(Cl)cc1N1CCC(O)(C(=O)NCc2cc(F)cc(Cl)c2)C1=O (stereo not shown) [B13, 1-(5-Chloro-2-methoxyphenyl)-3-hydroxy-2-oxopyrrolidine-3-carboxylic acid 3-chloro-5-fluorobenzylamide]"
9,10 to 1000,"O=C(NCCc1ccccc1F)[C@@]1(O)CCN(c2ccc3[nH]ccc3c2)C1=O [B14, (S)-3-hydroxy-1-(1H-indol-5-yl)-2-oxopyrrolidine-3-carboxylic acid[2-(2-fluorophenyl)ethyl]-amide]"
10,10 to 1000,"O=C1CCc2cc(N3CC[C@](O)(C(=O)NCc4cccc(F)c4Cl)C3=O)ccc2N1 [B15, N-(2-Chloro-3-fluorobenzyl)-(S)-3-hydroxy-2-oxo-1-(2-oxo-1,2,3,4-tetrahydroquinolin-6-yl)-pyrrolidine-3-carboxamide]"
11,1000 to 10000,"O=C(NCc1cc(F)cc(Cl)c1)C1(O)CCCN(Cc2ccccc2)C1 (stereo not shown) [B16, N-(3-Chloro-5-fluorobenzyl)-1-benzyl-3-hydroxypiperidine-3-carboxamide]"
12,10 to 1000,"O=C(NCc1cc(F)cc(Cl)c1)[C@@]1(O)CCN(c2ccc(Br)c(CO)c2)C1=O [B17, N-(3-Chloro-5-fluorobenzyl)-(S)-1-(4-bromo-3-hydroxymethyl-phenyl)-3-hydroxy-2-oxo-pyrrolidine-3-carboxamide]"
13,10 to 1000,"O=C1N(CC2CCCCC2)CCCC1(O)CNCc1cc(F)cc(Cl)c1 (stereo not shown) [B18, 3-[(3-Chloro-5-fluorobenzylamino)methyl]-1-cyclohexylmethyl-3-hydroxy-piperidin-2-one]"
14,> 10000,"OC1(CNCc2cc(F)cc(Cl)c2)CCCN(Cc2ccccc2)C1 (stereo not shown) [B19, 1-Benzyl-3-[(3-chloro-5-fluorobenzylamino)methyl]-piperidin-3-ol]"
15,> 10000,"OC1(CNCc2cccc(F)c2)CCCN(Cc2ccccc2)C1 (stereo not shown) [B20, 1-Benzyl-3-[(3-fluorobenzylamino)methyl]-piperidin-3-ol]"
16,> 10000,"O[C@]1(CNCc2ccc(F)cc2)CCCN(Cc2ccccc2)C1 [B21, (S)-1-Benzyl-3-[(4-fluorobenzylamino)methyl]-piperidin-3-ol]"
17,10 to 1000,"O=C1N(Cc2cccc(F)c2F)CCC[C@]1(O)CNCc1cccc(F)c1 [B22, (S)-1-(2,3-Difluorobenzyl)-3-[(3-fluorobenzylamino)methyl]-3-hydroxypiperidin-2-one]"
18,1000 to 10000,"O=C1N(Cc2cccc(F)c2F)CCC[C@@]1(O)CNCc1cccc(F)c1 [B23, (R)-1-(2,3-Difluorobenzyl)-3-[(3-fluorobenzylamino)methyl]-3-hydroxypiperidin-2-one]"
19,10 to 1000,"O=C1CCc2cc(N3CC[C@](O)(C(=O)NCc4cc(F)ccc4F)C3=O)ccc2N1 [B24, N-(2,5-Difluorobenzyl)-(S)-3-hydroxy-2-oxo-1-(2-oxo-1,2,3,4-tetrahydroquinolin-6-yl)-pyrrolidine-3-carboxamide]"
20,10 to 1000,"O=C(NCc1cc(F)cc(Cl)c1)C1(O)CCN(c2cc(C(F)(F)F)ccc2F)C1=O (stereo not shown) [B26, N-(3-Chloro-5-fluorobenzyl)-1-(2-Fluoro-5-trifluoromethyl-phenyl)-3-hydroxy-2-oxo-pyrrolidine-3-carboxamide]"

row,IC50 [nM],SMILES
1,10 to 1000,"O=C(NCc1cc(F)cc(Cl)c1)C1(O)CCN(c2ccc(Cl)c(C(F)(F)F)c2)C1=O (stereo not shown) [B27, N-(3-Chloro-5-fluorobenzyl)-1-(4-Chloro-3-trifluoromethyl-phenyl)-3-hydroxy-2-oxo-pyrrolidine-3-carboxamide]"
2,10 to 1000,"NC(=O)c1cc(N2CCC(O)(C(=O)NCc3cc(F)cc(Cl)c3)C2=O)ccc1F (stereo not shown) [B28, N-(3-Chloro-5-fluorobenzyl)-1-(3-carbamoyl-4-fluorophenyl)-3-hydroxy-2-oxopyrrolidine-3-carboxamide]"
3,10 to 1000,"O=C1N(c2ccccc2)CCC1(O)CNCc1cc(F)cc(Cl)c1 (stereo not shown) [B29, 3-[(3-Chloro-5-fluorobenzylamino)methyl]-3-hydroxy-1-phenylpyrrolidin-2-one]"
4,> 10000,"OC1(CNCc2cc(F)cc(Cl)c2)CCN(Cc2ccccc2)C1 (stereo not shown) [B30, 1-Benzyl-3-[(3-chloro-5-fluorobenzylamino)methyl]-pyrrolidin-3-ol]"
5,10 to 1000,"O=C1N(Cc2ccccc2)CCCC1(O)CNCc1cc(F)cc(Cl)c1 (stereo not shown) [B31, 1-Benzyl-3-[(3-chloro-5-fluorobenzylamino)methyl]-3-hydroxypiperidin-2-one]"
6,10 to 1000,"O=C1N(c2ccccc2)CCCC1(O)CNCc1cc(F)cc(Cl)c1 (stereo not shown) [B32, 3-[(3-Chloro-5-fluorobenzylamino)methyl]-3-hydroxy-1-phenylpiperidin-2-one]"
7,10 to 1000,"Cc1nc2cc(N3CCC(O)(C(=O)NCc4cc(F)cc(Cl)c4)C3=O)cnc2[nH]1 (stereo not shown) [B33, N-(3-Chloro-5-fluorobenzyl)-3-hydroxy-1-(2-methyl-3H-imidazo[4,5-b]pyridin-6-yl)-2-oxopyrrolidine-3-carboxamide]"
8,10 to 1000,"O=C(NCc1cc(F)cc(Cl)c1)C1(O)CCN(c2cnc3[nH]cnc3c2)C1=O (stereo not shown) [B35, N-(3-Chloro-5-fluorobenzyl)-3-hydroxy-1-(3H-imidazo[4,5-b]-pyridin-6-yl)-2-oxopyrrolidine-3-carboxamide]"
9,1000 to 10000,"O=C(NCc1cc(F)cc(Cl)c1)C1(O)CCN(c2cnc3[nH]c(C(F)(F)F)nc3c2)C1=O (stereo not shown) [B36, N-(3-Chloro-5-fluorobenzyl)-3-hydroxy-2-oxo-1-(2-trifluoromethyl-3H-imidazo-[4,5-b]pyridin-6-yl)pyrrolidine-3-carboxamide]"
10,10 to 1000,"O=C(NCc1cc(F)cc(Cl)c1)[C@@]1(O)CCN(CCc2c[nH]c3ccccc23)C1=O [B37, N-(3-Chloro-5-fluorobenzyl)-(S)-3-hydroxy-1-[2-(1H-indol-3-yl)-ethyl]-2-oxopyrrolidine-3-carboxamide]"
11,1000 to 10000,"O=C(NCc1cc(F)cc(Cl)c1)[C@]1(O)CCN(CCc2c[nH]c3ccccc23)C1=O [B38, N-(3-Chloro-5-fluorobenzyl)-(R)-3-hydroxy-1-[2-(1H-indol-3-yl)-ethyl]-2-oxopyrrolidine-3-carboxamide]"
12,10 to 1000,"O=C(NCc1cc(F)cc(Cl)c1)[C@@]1(O)CCN(c2cc(C(F)(F)F)ccc2F)C1=O [B39, N-(3-Chloro-5-fluorobenzyl)-(S)-1-(2-Fluoro-5-trifluoromethyl-phenyl)-3-hydroxy-2-oxo-pyrrolidine-3-carboxamide]"
13,10 to 1000,"O=C(NCc1cc(F)cc(Cl)c1)[C@@]1(O)CCN(c2ccc3[nH]c(=O)ccc3c2)C1=O [B40, N-(3-Chloro-5-fluorobenzyl)-(S)-3-hydroxy-2-oxo-1-(2-oxo-1,2-dihydroquinolin-6-yl)pyrrolidine-3-carboxamide]"
14,1000 to 10000,"O=C(NCc1cc(F)cc(Cl)c1)[C@]1(O)CCN(c2ccc3[nH]c(=O)ccc3c2)C1=O [B41, N-(3-Chloro-5-fluorobenzyl)-(R)-3-hydroxy-2-oxo-1-(2-oxo-1,2-dihydroquinolin-6-yl)pyrrolidine-3-carboxamide]"
15,1000 to 10000,"O=C(NCc1cc(F)cc(Cl)c1)[C@]1(O)CCN(c2cc(C(F)(F)F)ccc2F)C1=O [B42, N-(3-Chloro-5-fluorobenzyl)-(R)-1-(2-Fluoro-5-trifluoromethyl-phenyl)-3-hydroxy-2-oxo-pyrrolidine-3-carboxamide]"
16,10 to 1000,"O=C(NCc1cc(F)cc(Cl)c1)C1(O)CCN(c2ccc3[nH]cc(C(F)(F)F)c3c2)C1=O (stereo not shown) [B43, N-(3-Chloro-5-fluorobenzyl)-3-hydroxy-2-oxo-1-(3-trifluoromethyl-1H-indol-5-yl)-pyrrolidine-3-carboxamide]"
17,> 10000,"OC1(CNCc2cc(F)cc(F)c2)CCCN(Cc2ccccc2)C1 (stereo not shown) [B44, 1-Benzyl-3-[(3,5-difluorobenzylamino)methyl]-piperidin-3-ol]"
18,1000 to 10000,"O=C1N(c2ccccc2)CCC1(O)CNCc1ccc(F)cc1 (stereo not shown) [B45, 3-[(4-Fluorobenzylamino)-methyl]-3-hydroxy-1-phenyl-pyrrolidin-2-one]"
19,10 to 1000,"O=C1N(c2ccccc2)CCC1(O)CNCc1cc(F)cc(F)c1 (stereo not shown) [B46, 3-[(3,5-Difluorobenzylamino)-methyl]-3-hydroxy-1-phenyl-pyrrolidin-2-one]"
20,1000 to 10000,"O=C1N(c2ccccc2)CCC1(O)CNCCc1ccc(F)cc1 (stereo not shown) [B47, 3-{[2-(4-Fluorophenyl)-ethylamino]methyl}-3-hydroxy-1-phenylpyrrolidin-2-one]"
